For orientation: IC50 means the concentration at which inhibition is half-maximal.

From patent US20250214977A1, “STAT6 INHIBITORS AND USES THEREOF” (Kymera Therapeutics, Inc., priority 2024, published 2025) come the findings set out here.

For the experiment, the system named is Phosphorylation of STAT6 in human PBMC (CD19+ B cells). Kind of experiment: Phosphorylated STAT6 (pSTAT6) flow cytometry assay in human PBMC, IL-4 stimulated. Conditions: compound 1 hour, 1 ng/ml IL-4 for 15 minutes, read-out: STAT6 IL4 pSTAT6 assay in PBMC: Average IC50. In kind it is cell-based. Summed up: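 Human PBMC preincubated 1 h at 37 °C with compound (9-point 1:3 series, top up to 30 μM), then stimulated with 1 ng/ml IL-4 for 15 min. After fixation, methanol permeabilization and staining, pSTAT6 quantified in CD19+ B cells by flow cytometry; four-parameter fit of inhibition.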

On to `CN(C)C(=O)c1cc2ccc(C3=CCCN(C(=O)C4(O)CCN(Cc5ccccc5)CC4)C3)cc2[nH]1` [Example I-98], for which the IC50 was in the range of 10 to 100 µM.

For `CN(C)C(=O)c1cc2ccc(C3=CCCN(S(=O)(=O)Cc4cccnn4)C3)cc2[nH]1` [Example I-16], the IC50 is above 100 µM.

Turning to `CC1CCCN(C(=O)c2cc3ccc(C4=CCCN(C(=O)CCn5ccnn5)C4)cc3[nH]2)C1` (stereo not drawn) [Example I-127], the concentration for half-maximal inhibition (IC50) was in the range of 10 to 100 µM.

For the compound `CN(C)C(=O)c1cc2ccc(C3=CCCN(C(=O)CCc4ccon4)C3)cc2[nH]1` [Example I-20], the IC50 is above 100 µM.

As to `CCNC(Cn1ccnn1)C(=O)N1CCC=C(c2ccc3oc(C(=O)N(C)C)cc3c2)C1` (stereo not drawn) [Example I-153], the IC50 was above 100 µM.

Turning to `CN(C)C(=O)c1cc2ccc(C3=CCCN(C(=O)CC(c4ccccc4)c4ccccc4)C3)cc2[nH]1` [Example I-91], the IC50 is 10 to 100 µM.

Take `CN(C)C(=O)c1cc2ccc(C3=CCCN(C(=O)C4(c5ccccc5)CCC(=O)NC4)C3)cc2[nH]1` (stereo not drawn) [Example I-87]: the IC50 is 10 to 100 µM.

As to `CN(C)C(=O)c1cc2cc(C3=CCCN(C(=O)Cn4ccnc4)C3)ccc2o1` [Example I-311], the IC50 was above 100 µM.

In the case of `CN(C)C(=O)c1cc2ccc(C3=CCCN(C(=O)c4snnc4C4CC4)C3)cc2[nH]1` [Example I-143], the IC50 is above 100 µM.

For `O=C(CCn1ccnn1)N1CCC=C(c2ccc3cc(-c4ccccn4)[nH]c3c2)C1` [Example I-119], the IC50 is above 100 µM.

As for `CN(C)C(=O)c1cc2ccc(C3=CCCN(C(=O)C4(C#N)CC4)C3)cc2[nH]1` [Example I-29], the half-maximal inhibitory concentration (IC50) was in the range of 10 to 100 µM.

As for `CN(C)C(=O)c1cc2ccc(C3=CCCN(C(=O)[C@H]4Cc5ccccc5CN4)C3)cc2[nH]1` [Example I-59], the IC50 fell in the range of 1 to 10 µM.

Take `CC(=O)NC(C(=O)N1CCC=C(c2ccc3cc(C(=O)N(C)C)[nH]c3c2)C1)c1cccc(Cl)c1` (stereo not drawn) [Example I-77]: the IC50 lay in the range of 10 to 100 µM.

For `CN(C)C(=O)c1cc2ccc(C3=CCCN(C(=O)C4CCN(c5ncccc5C(=O)O)CC4)C3)cc2[nH]1` [Example I-109], the IC50 is 10 to 100 µM.

Turning to `CO[C@@H](C(=O)N1CCC=C(c2ccc3cc(C(=O)N(C)C)[nH]c3c2)C1)c1ccccc1` [Example I-50], the IC50 fell in the range of 10 to 100 µM.

On to `CN(C)C(=O)c1ccc2c(C3=CCCN(C(=O)CCn4ccnn4)C3)c[nH]c2c1` [Example I-317], for which the 50% inhibitory concentration (IC50) was above 100 µM.

As to `COc1ccc(CC(=O)N2CCC=C(c3ccc4oc(C(=O)N(C)C)cc4c3)C2)cc1C#N` [Example I-256], the IC50 was above 100 µM.

On to `Cc1cccc(-c2ncccc2C(=O)N2CCC=C(c3ccc4cc(C(=O)N(C)C)[nH]c4c3)C2)c1` [Example I-86], for which the half-maximal inhibitory concentration (IC50) is above 100 µM.

Take `CN(C)C(=O)c1cc2cc(C3=CCCN(C(=O)CCc4ccccn4)C3)ccc2[nH]1` [Example I-200]: the 50% inhibitory concentration (IC50) was above 100 µM.

As to `COC(=O)c1cnn(-c2cc(C3=CCCN(C(=O)CCn4ccnn4)C3)cc3cc(C(=O)N(C)C)oc23)c1` [Example I-186], the IC50 was above 100 µM.

On to `CN(C)C(=O)c1cc2ccc(C3=CCCN(C(=O)c4cccnc4-c4ccc(F)c(F)c4)C3)cc2[nH]1` [Example I-137], for which the half-maximal inhibitory concentration (IC50) was above 100 µM.

Turning to `CN(C)C(=O)c1cc2cc(C3=CCCN(C(=O)[C@H]4Cc5ccc(O)cc5CN4)C3)ccc2o1` [Example I-239], the IC50 is above 100 µM.

As for `Cc1c(S(C)(=O)=O)ccc(C(=O)N2CCC=C(c3ccc4cc(C(=O)N(C)C)[nH]c4c3)C2)c1Cl` [Example I-138], the IC50 is above 100 µM.

`O=C(CCn1ccnn1)N1CCC=C(c2c[nH]c3cc(-n4ccccc4=O)ccc23)C1` [Example I-277]: the IC50 is above 100 µM.

On to `CN(C)C(=O)c1cc2cc(C3=CCCN(C(=O)Cc4ccccn4)C3)ccc2o1` [Example I-263], for which the concentration for half-maximal inhibition (IC50) is above 100 µM.

For `CN(C)C(=O)c1cc2ccc(C3=CCCN(C(=O)c4cccnc4CS(C)(=O)=O)C3)cc2[nH]1` [Example I-69], the IC50 is above 100 µM.

Regarding `Cc1nc(-c2ccccc2F)c(C(=O)N2CCC=C(c3ccc4cc(C(=O)N(C)C)[nH]c4c3)C2)o1` [Example I-89], the half-inhibitory concentration (IC50) is above 100 µM.

With `CN(C)C(=O)c1cc2ccc(C3=CCCN(C(=O)CCN4CCOC4=O)C3)cc2[nH]1` [Example I-134], the half-maximal inhibitory concentration (IC50) is above 100 µM.

`CN(C)C(=O)c1cc2ccc(C3=CCCN(C(=O)C(O)Cc4ccccc4)C3)cc2[nH]1` (stereo not drawn) [Example I-52]: the concentration for half-maximal inhibition (IC50) lay within 10 to 100 µM.

Turning to `CN(C)C(=O)c1cc2cc(C3=CCCN(C(=O)Cn4ccc5ccccc54)C3)ccc2o1` [Example I-274], the IC50 is above 100 µM.

Turning to `CC(=O)c1cc(C(=O)N2CCC=C(c3ccc4cc(C(=O)N(C)C)[nH]c4c3)C2)n[nH]1` [Example I-49], the half-inhibitory concentration (IC50) is 10 to 100 µM.

With `CNc1ccc(-c2cc(C3=CCCN(C(=O)CCn4ccnn4)C3)cc3[nH]c(C(=O)N(C)C)cc23)nc1` [Example I-116], the concentration for half-maximal inhibition (IC50) lay in the range of 0.1 to 1 µM.

As for `CN(C)C(=O)c1cc2ccc(C3=CCCN(C(=O)CC(C)(O)C(F)(F)F)C3)cc2[nH]1` (stereo not drawn) [Example I-46], the IC50 was 10 to 100 µM.

With `CN(C)C(=O)c1cc2cc(C3=CCCN(C(=O)CN4CCc5ccccc5C4)C3)ccc2o1` [Example I-296], the half-inhibitory concentration (IC50) is above 100 µM.

With `CCC(=O)N1Cc2ccccc2CC1C(=O)N1CCC=C(c2ccc3oc(C(=O)N(C)C)cc3c2)C1` (stereo not drawn) [Example I-189], the half-maximal inhibitory concentration (IC50) is above 100 µM.

As to `CN(C)C(=O)c1cc2ccc(C3=CCCN(C(=O)Cn4ccccc4=O)C3)cc2[nH]1` [Example I-316], the half-inhibitory concentration (IC50) is above 100 µM.

As to `CN(C)C(=O)c1cc2cc(C3=CCCN(C(=O)CCn4ccnn4)C3)cc(-c3ccc(O)cc3)c2o1` [Example I-205], the IC50 was in the range of 0.1 to 1 µM.

In the case of `CN(C)C(=O)c1cc2ccc(C3=CCCN(C(=O)CCn4ccnn4)C3)c(F)c2[nH]1` [Example I-304], the concentration for half-maximal inhibition (IC50) was below 0.1 µM.

In the case of `CN(C)C(=O)c1cc2ccc(C3=CCCN(C(=O)c4cccnc4-c4cc(F)cc(F)c4)C3)cc2[nH]1` [Example I-94], the half-inhibitory concentration (IC50) is 10 to 100 µM.

`CN(C)C(=O)c1cc2cc(C3=CCCN(C(=O)Cc4ccc5ccccc5c4)C3)ccc2o1` [Example I-295]: the half-inhibitory concentration (IC50) is above 100 µM.

Take `CN(C)C(=O)c1cc2ccc(C3=CCCN(C(=O)CN4CCOC4=O)C3)cc2[nH]1` [Example I-42]: the half-maximal inhibitory concentration (IC50) is 10 to 100 µM.

Consider `CC(=O)NCc1ccccc1-c1ccccc1CC(=O)N1CCC=C(c2ccc3oc(C(=O)N(C)C)cc3c2)C1` [Example I-219], for which the IC50 was above 100 µM.

Turning to `CN(C)C(=O)c1cc2cc(C3=CCCN(C(=O)CCn4ccnn4)C3)ccc2[nH]1` [Example I-308], the IC50 was above 100 µM.

Take `CN(C)C(=O)c1cc2cc(C3=CCCN(C(=O)Cc4c[nH]c5ncccc45)C3)ccc2o1` [Example I-309]: the half-inhibitory concentration (IC50) is above 100 µM.

For `CN(C)C(=O)c1cc2ccc(C3=CCCN(C(=O)[C@@H]4CCCN4C(=O)c4ccc(F)cc4)C3)cc2[nH]1` [Example I-99], the IC50 is above 100 µM.

Regarding `CCC[C@@H](C(=O)N1CCC=C(c2ccc3cc(C(=O)N(C)C)[nH]c3c2)C1)N1Cc2ccccc2C1=O` [Example I-96], the concentration for half-maximal inhibition (IC50) is 10 to 100 µM.

Consider `CNCc1cc(C2=CCCN(C(=O)CCn3ccnn3)C2)cc2cc(C(=O)N(C)C)oc12` [Example I-203], for which the IC50 was 10 to 100 µM.

Turning to `CN(C)C(=O)c1cc2cc(C3=CCCN(C(=O)CCn4ccnn4)C3)cnc2s1` [Example I-244], the IC50 was above 100 µM.

Take `CN(C)C(=O)c1cc2ccc(C3=CCCN(C(=O)CCc4ccccc4C#N)C3)cc2[nH]1` [Example I-64]: the IC50 was above 100 µM.

Turning to `O=C(NCCO)c1cc2cc(C3=CCCN(C(=O)CCn4ccnn4)C3)ccc2o1` [Example I-307], the 50% inhibitory concentration (IC50) was above 100 µM.

Consider `CN(C)C(=O)c1cc2ccc(C3=CCCN(C(=O)CCc4nnc[nH]4)C3)cc2[nH]1` [Example I-21], for which the IC50 is above 100 µM.

For the compound `CN(C)C(=O)c1cc2cc(C3=CCCN(C(=O)C4Cc5ccccc5CN4C)C3)ccc2o1` (stereo not drawn) [Example I-285], the IC50 was above 100 µM.

In the case of `CN(C)C(=O)c1cc2cc(C3=CCCN(C(=O)CCc4ncns4)C3)ccc2o1` [Example I-165], the IC50 was above 100 µM.

For `CN(C)C(=O)c1cc2cc(C3=CCCN(C(=O)CCc4ccc5c(c4)OCCO5)C3)ccc2o1` [Example I-280], the IC50 is above 100 µM.

Turning to `COC(=O)C1CCC(c2ccc3oc(C(=O)N(C)C)cc3c2)CN1C(=O)CCn1ccnn1` (mixture of isomers) [Example I-1], the IC50 is above 100 µM.

`CNc1ccc(-c2cc(C3=CCCN(C(=O)CCn4ccnn4)C3)cc3[nH]c(C(=O)N(C)C)cc23)c(F)c1` [Example I-115]: the concentration for half-maximal inhibition (IC50) fell in the range of 1 to 10 µM.

For `CN(C)C(=O)c1cc2cc(C3=CCCN(C(=O)CCc4cccnn4)C3)ccc2o1` [Example I-220], the IC50 is above 100 µM.

Regarding `CN(C)C(=O)c1cc2ccc(C3=CCCN(C(=O)c4cc(=O)c(OCc5ccccc5)c[nH]4)C3)cc2[nH]1` [Example I-110], the IC50 is above 100 µM.

As to `CC(=O)OCC(C(=O)N1CCC=C(c2ccc3cc(C(=O)N(C)C)[nH]c3c2)C1)c1ccccc1` (stereo not drawn) [Example I-73], the half-inhibitory concentration (IC50) was in the range of 10 to 100 µM.

As to `CN(C)C(=O)c1cc2ccc(C3=CCCN(C(=O)OCn4ccnn4)C3)cc2[nH]1` [Example I-120], the 50% inhibitory concentration (IC50) was above 100 µM.

As for `CN(C)C(=O)c1cc2ccc(C3=CCCN(C(=O)CCc4nnco4)C3)cc2[nH]1` [Example I-18], the IC50 was above 100 µM.

Consider `CN(C)C(=O)c1cc2ccc(C3=CCCN(C(=O)C4(O)CCCC4)C3)cc2[nH]1` [Example I-32], for which the half-inhibitory concentration (IC50) fell in the range of 10 to 100 µM.

On to `CN(C)C(=O)c1cc2ccc(C3=CCCN(C(=O)CCCn4ncc5nc(Cl)ccc54)C3)cc2[nH]1` [Example I-90], for which the IC50 was 10 to 100 µM.

For the compound `CN(C)C(=O)c1cc2ccc(C3=CCCN(C(=O)C4CS(=O)(=O)C4)C3)cc2[nH]1` [Example I-163], the IC50 was above 100 µM.

On to `CCOC(=O)N(CC(=O)N1CCC=C(c2ccc3cc(C(=O)N(C)C)[nH]c3c2)C1)Cc1ccco1` [Example I-81], for which the IC50 was above 100 µM.

On to `CN(C)C(=O)c1cc2ccc(C3=CCCN(C(=O)Cn4cncn4)C3)cc2[nH]1` [Example I-36], for which the IC50 was in the range of 10 to 100 µM.
